Measured values taken from patent US12090189B2, “Polypeptide inhibitor of de novo lipogenesis in cancer cells” (University of Florida Research Foundation, Inc., priority 2018, dated 2024).
Ends that are not written are not given here.

What was measured:
[1] = system: protein levels of ACC1, FAS and ACSS2; assay: Immunoblotting of MDA-MB-231-derived cells treated with mTOR inhibitor; format: cell-based, human; conditions: serum-starved 24 h, 0.1 μM for 5 h; for protein levels of ACC1, FAS and ACSS2: control or S671A-expressing cells
From the text: FIGS. 6A to 6H show mutation of DAXX phosphorylation sites disrupts DAXX-SREBP2 interaction, impairs lipogenesis and tumor growth. […] The GFP-wt DAXX was transfected alone in the absence of FLAG-SREBP2 as a control (lane 7). The lysates of transfected cells were subjected to IP with an anti-FLAG antibody. Both DAXX and FLAG-SREBP2 were detected in immunoprecipitates and input lysates. […] The precipitated DNAs were subjected to qPCR with primers specific to promoter regions of the indicated genes. qPCRs for the 3′ UTR of the FASN and ACACA genes serve as negative control. […] ATRX qRT-PCR serves as a control for genes not regulated by SREBPs. […] Cells were serum-starved for 24 h. DMSO or a mTOR inhibitor (0.1 μM final concentration) was added for 5 h before cell lysis. […] RNAs were isolated from cells cultured in serum-free DMEM for 24 h as in FIG. 6D.
For immunoblotting analyses of cell lysates of monolayer cultures, medium was removed from culture plates and 1× Passive Lysis buffer (Promega) was added. The plates were frozen at −80° C. overnight and then thawed at room temperature. The lysates were transferred to a centrifuge tube. To prepare tumor lysates, xenograft tumor tissues were fragmented in the presence of liquid nitrogen, approximately 50 mg of tumor fragment was homogenized in 1 mL of 1× RIPA lysis buffer on ice using a micro-homogenizer. After brief sonication at a low power output for 5 sec on ice, the lysates were cleared by centrifugation at 13,000 rpm for 15 min at 4° C. Protein contents were quantified using a Qubit protein assay kit. Protein extracts from cell culture or tumor lysates were subjected to SDS-PAGE and electro-blotting as above.

[2] = Tolerability in tumor-bearing mice (body weights); format: in vivo; conditions: 25 mg/kg i.p. daily weekdays
Protocol: FIGS. 7A to 7E show the DAXX SIM2 peptide disrupts DAXX-SREBP interaction and suppresses tumor growth in vivo. […] The immunoprecipitates, input and supernatants were analyzed by immunoblotting. […] Mice were dosed i.p. daily weekdays for three weeks with vehicle or SIM2 (25 mg/kg). Longitudinal tumor volumes, mouse body weights, and endpoint tumor weights and images are shown. […] Protein extracts from three representative MDA-MB-231 xenograft tumors in vehicle and SIM2-treated mice were subjected to immunoblotting. HSP60 was detected as a loading control. […] Mice were dosed as in FIG. 7B. Longitudinal tumor volumes, mouse body weights, and endpoint tumor weights and tumor images are shown. […] Shown are a plot of a principal component analysis of lipid molecules detected by LC/MS, a heatmap of top lipid species, and bar graphs of relative abundance of the indicated lipid molecules. […] The p values were calculated based on Student's t-test. *: p<0.05; **: […].
For the in vivo SIM2 treatment study, MDA-MB-231 xenograft tumors were established as above and the mouse mammary tumor cell line 4T1 syngeneic tumors were established by transplanting one million cells in 100 μl of DMEM into mammary fat pads of female BALB/c mice. […] During the treatment, tumor dimensions and mouse body weights were recorded once weekly. […]

[3] = system: MDA-MB-231 and MDA-MB-468 cells; assay: Cell internalization of TAMRA-SIM2 by microscopy; format: cell-based, human; conditions: TAMRA-SIM2 1 μM, 1 hour
Protocol: FIGS. 18A to 18I show SIM2 peptide blocks lipogenesis. […] MDA-MB-231 and MDA-MB-468 cells were exposed to TAMRA-SIM2 (1 μM) for 1 hour and visualized by microscopy. […] Fluorescence polarization assay was performed in the presence of TAMRA-SIM2 and increased concentrations of SUMO1. FIGS. 18C-18H show SIM2 blocks de novo lipogenesis in MDA-MB-231 control or DAXX OE (FIG. 18C), MDA-MB-468 (FIG. 18D), Hs578T (FIG. 18E), HCT116 (FIG. 18F), 4T1 (FIG. 18G), and CT26.CL25 (FIG. 18H). Serum-starved cells were not treated (control) or exposed to SIM2 (10 μM) and labeled with [^14C] acetate. The levels of labeled lipids were quantified. […] MDA-MB-231 control and DAXX OE cell lines were untreated (control) or treated with SIM2 (10 μM). At 24 h after treatment, RNA was isolated and subject to qRT-PCR. RNA levels were normalized against that of ACTB. The p values shown are based on t-test.

CO[C@H]1C[C@@H]2CC[C@@H](C)[C@@](O)(O2)C(=O)C(=O)N2CCCC[C@H]2C(=O)O[C@H]([C@H](C)C[C@@H]2CC[C@@H](OC(=O)C(C)(CO)CO)[C@H](OC)C2)CC(=O)[C@H](C)/C=C(\C)[C@@H](O)[C@@H](OC)C(=O)[C@H](C)C[C@H](C)/C=C/C=C/C=C/1C [temsirolimus]
levels of ACC1 and FAS ([1]; cells expressing the S495A mutant): reduced levels of both ACC1 and FAS | protein levels of ACC1, FAS and ACSS2 [1]: Neither of these inhibitors had obvious effects

COc1ccc(-c2ccc3c(N4CCOC[C@@H]4C)nc(N4CCOC[C@@H]4C)nc3n2)cc1CO [AZD8055]
protein levels of ACC1, FAS and ACSS2 [1]: Neither of these inhibitors had obvious effects

DPEEIIVLSDSD [SIM2, DPEEIIVLSDSD]
tolerability in vivo [2]: highly tolerated in vivo | internalization into cells [3]: spontaneously and rapidly internalized into cells
